This note sets out measurements from patent US20160122386A1, “V1A RECEPTOR AGONISTS” (FERRING B.V., priority 2014, published 2016).

The assay concerns the target T1, human V1aR (Homo sapiens, UniProt P37288).
T1 construct: expressed in transfected cells
Briefly: Agonist activity at vasopressin V1a receptors, cell-based FLIPR calcium assay. The note with it: for Emax: read-out: Efficacy Avg. (%). The method, then: Efficacy (% MPE) is also determined as the percentage of maximal possible effect. This agonist assay utilizes cells from a stable cell line (HEK-flpin) expressing the vasopressin V1a receptor. Intracellular calcium increase in response to agonist is measured through real-time fluorescence of an intracellular calcium-sensitive dye. Cells are exposed to varying concentrations of test agonist compounds whereupon release of intracellular calcium is measured to determine the agonist potency and efficacy.
The cell line stably expresses the lacZ-Zeocin™ fusion gene and is designed for use with the Flp-In™ expression vector containing the gene of interest and the Flp recombinase expression plasmid, pOG44. The cell line contains a single integrated Flp Recombination Target (FRT) site from pFRT/lacZeo or pFRT/lacZeo2. To generate the HEK-flpin cell line stably expressing the human V1aR, the cells were co-transfected with the Flp-In™ expression vector containing the gene of interest (pcDNA5/FRT-hV1aR) and the Flp recombinase expression plasmid pOG44. Flp recombinase mediates insertion of the Flp-In™ expression vector into the genome at the integrated FRT site through site-specific DNA recombination. Stable cell lines expressing the hV1aR from the Flp-In™ expression vector can be generated by selection using hygromycin B. See Life Technologies/Invitrogen manual, Growth and Maintenance of Flp-In™ Cell Lines, Version E, published Feb.
Efficacy of this compound was set to be 100%. A stock solution of 5 mM was made up in DMSO and stored at −20° C.
HEK-flpin-hV1aR, cmcqV1aR, dV1aR and pV1aR cells were maintained in DMEM containing 10% (v/v) FBS-HI, 4 mM GlutaMAX™-I, 25 μg/mL Hygromycin B at 37° C. under 5% CO2 in a humidified atmosphere. Subculture was achieved by splitting semi-confluent cultures 1:3 to 1:6.
All compounds were made up in 100% DMSO at 10 mM stock concentrations and stored at −20° C. The compounds were allowed to thaw just before the assay. […] Typical dilution procedure of 10× final assay concentration involved a 1:100 top dilution (e.g., 2 μl Stock into 198 μl dilution medium) followed by half-log serial dilutions (e.g., 25.3 μl into 54.7 μl dilution medium supplemented with 1% DMSO (v/v)). (Dilution media consisted of phenol-red free DMEM containing 10% FBS-HI, 4 mM GlutaMAX™-I). […] The final DMSO concentration in the assay was 0.1%.
Loading Buffer was prepared by dissolving 1 vial of Calcium 4 Assay reagent in 100 mL of 1× HBSS-20 mM Hepes buffer.
The cells were loaded with Loading Buffer as follows. Cell plates were removed from the incubator and 20 μl of Loading Buffer containing probenecid (2.5 mM) was added to each well. The cells were incubated for 1 hr at 37° C. under 5% CO2 in a humidified atmosphere. The calcium image was obtained as follows.
The cell plates were transferred to FLIPR Tetra, along with a 384 well V-bottom plate pre-loaded with half-log concentrations of test compounds at 10× final test concentrations. The remaining steps of the assay were carried forward by FLIPR Tetra. A baseline reading was taken at 1-second (s) intervals for 5s followed by the addition of 5 μl of 10× compounds (test, reference, or Blank). The agonist-induced fluorescence signal was then measured for 180 s with initial 120 readings at 1-second intervals followed by 20 readings at 3-second intervals. Overall, each well in the FLIPR assay was composed of the following components in a total volume of 50 μl: 20 μl cells; 20 μl Calcium 4 Loading Buffer; […] 10× test or reference compound.

Starred links: 1 amine or outer side, 2 acyl side, 3 side chain; linkers in the order of their positions; H or OH if unused. Positions of bridges follow the written chain, without caps; N, C: chain ends. Non-standard residues stand in square brackets, D forms with d. Residues, ends and D or L forms follow the SMILES beside them. Chains are numbered I, II in the order given. *: point of attachment. Orn((CH2)6NH2) = O=C([C@H](CCCNCCCCCCN[*:3])N[*:1])[*:2]; d(isoGln) = NC(=O)[C@@H](CCC(=O)[*:2])N[*:1]; X2 = N=C(N)N[C@@H](CCCCN[*:1])C(=O)[*:2]; isoGln = NC(=O)[C@H](CCC(=O)[*:2])N[*:1]; d(εLys) = N[C@H](CCCCN[*:1])C(=O)[*:2]; εLys = N[C@@H](CCCCN[*:1])C(=O)[*:2]; X4 = N[C@H](CCC(=O)[*:2])C(=O)[*:1]; 3Pal = N[C@@H](Cc1cccnc1)C(=O)O; Aad = N[C@@H](CCCC(=O)O)C(=O)O; Cit = NC(=O)NCCC[C@H](N)C(=O)O; Suc = O=C(CCC(=O)[*:2])[*:1]; Orn = NCCC[C@H](N)C(=O)O; Dab = NCC[C@H](N)C(=O)O; PhAc = O=C(Cc1ccccc1)* Bounds are passed on as bounds.

T1 sequence (P37288 whole entry): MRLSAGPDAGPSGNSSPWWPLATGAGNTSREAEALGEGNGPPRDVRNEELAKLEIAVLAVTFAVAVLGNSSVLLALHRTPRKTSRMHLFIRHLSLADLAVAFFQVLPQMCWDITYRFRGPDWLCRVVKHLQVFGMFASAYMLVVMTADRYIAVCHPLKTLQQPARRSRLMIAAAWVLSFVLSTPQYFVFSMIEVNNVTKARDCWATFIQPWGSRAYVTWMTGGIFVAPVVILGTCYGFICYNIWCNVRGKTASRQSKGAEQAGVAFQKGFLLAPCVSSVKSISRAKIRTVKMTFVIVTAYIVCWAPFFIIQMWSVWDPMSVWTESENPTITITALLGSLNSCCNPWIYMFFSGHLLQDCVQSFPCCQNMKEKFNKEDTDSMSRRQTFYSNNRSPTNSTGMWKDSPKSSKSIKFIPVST

On to `CC[C@H](C)[C@@H]1NC(=O)[C@H](Cc2ccccc2)NC(=O)[C@@H](N)CSSC[C@@H](C(=O)N2CCC[C@H]2C(=O)N[C@@H](CCCNCCCCCNC(=O)CC[C@H](NC(=O)[C@H](CCCNC(=N)N)NC(=O)[C@@H]2CCCN2C(=O)[C@H](C)NC(=O)[C@H](CC(N)=O)NC(=O)[C@H](CCC(N)=O)NC(=O)[C@H](Cc2ccccc2)NC(=O)[C@@H](Cc2ccc(OC)cc2)NC(=O)Cc2ccccc2)C(N)=O)C(=O)NCC(N)=O)NC(=O)[C@H](CC(N)=O)NC(=O)[C@H](CCC(N)=O)NC1=O` [Compound 2], for which the EC50 – broadly, the concentration that produces a half-maximal response – amounted to 0.69 nM and the Emax stood at 52%.
For `CC[C@H](C)[C@@H]1NC(=O)[C@H](Cc2ccccc2)NC(=O)[C@@H](N)CSSC[C@@H](C(=O)N2CCC[C@H]2C(=O)N[C@@H](CCCNCCCCCCNC(=O)CCC(=O)NCCCC[C@H](NC(=O)[C@H](CCCNC(=N)N)NC(=O)[C@@H]2CCCN2C(=O)[C@H](CCCNC(=N)N)NC(=O)[C@H](CC(N)=O)NC(=O)[C@H](CCC(N)=O)NC(=O)[C@H](Cc2ccccc2)NC(=O)[C@@H](Cc2ccc(OC)cc2)NC(=O)Cc2ccccc2)C(N)=O)C(=O)NCC(N)=O)NC(=O)[C@H](CC(N)=O)NC(=O)[C@H](CCC(N)=O)NC1=O` [Compound 1] (I: H-CFIQNCP[Orn((CH2)6NH2)]G-NH2 / II: PhAc-[dY](Me)FQNRPRK-NH2; disulfide I:1-I:6; linker I:8-II:8 via Suc), in that order: 1 nM and 30%.
For `CC[C@H](C)[C@@H]1NC(=O)[C@H](Cc2ccccc2)NC(=O)[C@@H](N)CSSC[C@@H](C(=O)N2CCC[C@H]2C(=O)N[C@@H](CCNC(=O)[C@H](N)CCCCNC(=O)CC[C@H](NC(=O)[C@H](CCCNC(=N)N)NC(=O)[C@@H]2CCCN2C(=O)[C@H](CCCNC(N)=O)NC(=O)[C@H](CC(N)=O)NC(=O)[C@H](CCC(N)=O)NC(=O)[C@H](Cc2ccccc2)NC(=O)[C@@H](Cc2ccc(OC)cc2)NC(=O)Cc2ccccc2)C(N)=O)C(=O)NCC(N)=O)NC(=O)[C@H](CC(N)=O)NC(=O)[C@H](CCCC(N)=O)NC1=O` [Compound 52] (I: H-CFI[Aad](NH2)NCP[Dab]G-NH2 / II: PhAc-[dY](Me)FQN[Cit]PR[isoGln][d(εLys)]; disulfide I:1-I:6; amide I:8-II:C), in that order: 1.5 nM and 47%.
For `CC[C@H](C)[C@@H]1NC(=O)[C@H](Cc2ccccc2)NC(=O)[C@@H](N)CSSC[C@@H](C(=O)N2CCC[C@H]2C(=O)N[C@@H](CCNC(=O)[C@H](CCCCNC(=O)CC[C@H](NC(=O)[C@H](CCCNC(=N)N)NC(=O)[C@@H]2CCCN2C(=O)[C@H](C)NC(=O)[C@H](CC(N)=O)NC(=O)[C@H](CCC(N)=O)NC(=O)[C@H](Cc2ccccc2)NC(=O)[C@@H](Cc2ccc(OC)cc2)NC(=O)Cc2ccccc2)C(N)=O)NC(=N)N)C(=O)NCC(N)=O)NC(=O)[C@H](CC(N)=O)NC(=O)[C@H](CCC(N)=O)NC1=O` [Compound 29] (I: H-CFIQNCP[Dab]G-NH2 / II: PhAc-[dY](Me)FQNAPR[isoGln][X2]; disulfide I:1-I:6 (inferred); amide I:8-II:C (inferred)), in that order: 1.2 nM and 39%.
For the compound `CC[C@H](C)[C@@H]1NC(=O)[C@H](Cc2ccccc2)NC(=O)[C@@H](N)CSSC[C@@H](C(=O)N2CCC[C@H]2C(=O)N[C@@H](CCCNC(=O)[C@@H](N)CCCCNC(=O)CC[C@H](NC(=O)[C@H](CCCNC(=N)N)NC(=O)[C@@H]2CCCN2C(=O)[C@H](CCCNC(=N)N)NC(=O)[C@H](CC(N)=O)NC(=O)[C@H](Cc2cccnc2)NC(=O)[C@H](Cc2ccccc2)NC(=O)[C@@H](Cc2ccc(OC)cc2)NC(=O)Cc2ccccc2)C(N)=O)C(=O)NCC(N)=O)NC(=O)[C@H](CC(N)=O)NC(=O)[C@H](CCC(N)=O)NC1=O` [Compound 24] (I: H-CFIQNCP[Orn]G-NH2 / II: PhAc-[dY](Me)F[3Pal]NRPR[isoGln][εLys]; disulfide I:1-I:6; amide I:8-II:C), the EC50 worked out at 2.3 nM and the Emax came to 33%.
For `CC[C@H](C)[C@@H]1NC(=O)[C@H](Cc2ccccc2)NC(=O)[C@@H](N)CSSC[C@@H](C(=O)N2CCC[C@H]2C(=O)N[C@@H](CCNC(=O)[C@H](N)CCC(=O)NCCCC[C@H](NC(=O)[C@H](CCCNC(=N)N)NC(=O)[C@@H]2CCCN2C(=O)[C@H](C)NC(=O)[C@H](CC(N)=O)NC(=O)[C@H](CCC(N)=O)NC(=O)[C@H](Cc2ccccc2)NC(=O)[C@@H](Cc2ccc(OC)cc2)NC(=O)Cc2ccccc2)C(N)=O)C(=O)NCC(N)=O)NC(=O)[C@H](CC(N)=O)NC(=O)[C@H](CCCC(N)=O)NC1=O` [Compound 65] (I: H-CFI[Aad](NH2)NCP[Dab]G-NH2 / II: PhAc-[dY](Me)FQNAPRK-NH2; disulfide I:1-I:6; linker I:8-II:8 via X4), in that order: 4.5 nM and 31%.
In the case of `CC[C@H](C)[C@@H]1NC(=O)[C@H](Cc2ccccc2)NC(=O)[C@@H](N)CSSC[C@@H](C(=O)N2CCC[C@H]2C(=O)N[C@@H](CCNC(=O)[C@@H](N)CCCCNC(=O)CC[C@H](NC(=O)[C@H](CCCNC(=N)N)NC(=O)[C@@H]2CCCN2C(=O)[C@H](C)NC(=O)[C@H](CC(N)=O)NC(=O)[C@H](CCC(N)=O)NC(=O)[C@H](Cc2ccccc2)NC(=O)[C@@H](Cc2ccc(OC)cc2)NC(=O)Cc2ccccc2)C(N)=O)C(=O)NCC(N)=O)NC(=O)[C@H](CC(N)=O)NC(=O)[C@H](CCC(N)=O)NC1=O` [Compound 18] (I: H-CFIQNCP[Dab]G-NH2 / II: PhAc-[dY](Me)FQNAPR[isoGln][εLys]; disulfide I:1-I:6; amide I:8-II:C), the EC50 was 3.9 nM and the Emax was 49%.
On the same counts, the results for `CC[C@H](C)[C@@H]1NC(=O)[C@H](Cc2ccccc2)NC(=O)[C@@H](O)CSSC[C@@H](C(=O)N2CCC[C@H]2C(=O)N[C@@H](CCNC(=O)[C@@H](N)CCCCNC(=O)CC[C@H](NC(=O)[C@H](CCCNC(=N)N)NC(=O)[C@@H]2CCCN2C(=O)[C@H](C)NC(=O)[C@H](CC(N)=O)NC(=O)[C@H](CCC(N)=O)NC(=O)[C@H](Cc2ccccc2)NC(=O)[C@@H](Cc2ccc(OC)cc2)NC(=O)Cc2ccccc2)C(N)=O)C(=O)NCC(N)=O)NC(=O)[C@H](CC(N)=O)NC(=O)[C@H](CCC(N)=O)NC1=O` [Compound 30] are 1.1 nM and 50%.
On the same counts, the results for `CC[C@H](C)[C@@H]1NC(=O)[C@H](Cc2ccccc2)NC(=O)[C@@H](N)CSSC[C@@H](C(=O)N2CCC[C@H]2C(=O)N[C@@H](CCCNCCCCNC(=O)CC[C@H](NC(=O)[C@H](CCCNC(=N)N)NC(=O)[C@@H]2CCCN2C(=O)[C@H](CCCNC(=N)N)NC(=O)[C@H](CC(N)=O)NC(=O)[C@H](CCC(N)=O)NC(=O)[C@H](Cc2ccccc2)NC(=O)[C@@H](Cc2ccc(OC)cc2)NC(=O)Cc2ccccc2)C(N)=O)C(=O)NCC(N)=O)NC(=O)[C@H](CC(N)=O)NC(=O)[C@H](CCC(N)=O)NC1=O` [Compound 10] are more than 10000 nM and 26%.
Take `CC[C@H](C)[C@@H]1NC(=O)[C@H](Cc2ccccc2)NC(=O)[C@@H](N)CSSC[C@@H](C(=O)N2CCC[C@H]2C(=O)N[C@@H](CCNC(=O)[C@H](N)CCCCNC(=O)CC[C@@H](NC(=O)[C@H](CCCNC(=N)N)NC(=O)[C@@H]2CCCN2C(=O)[C@H](CCCNC(N)=O)NC(=O)[C@H](CC(N)=O)NC(=O)[C@H](CCC(N)=O)NC(=O)[C@H](Cc2ccccc2)NC(=O)[C@@H](Cc2ccc(OC)cc2)NC(=O)Cc2ccccc2)C(N)=O)C(=O)NCC(N)=O)NC(=O)[C@H](CC(N)=O)NC(=O)[C@H](CCC(N)=O)NC1=O` [Compound 55] (I: H-CFIQNCP[Dab]G-NH2 / II: PhAc-[dY](Me)FQN[Cit]PR[d(isoGln)][d(εLys)]; disulfide I:1-I:6; amide I:8-II:C): the Emax came out at 56%.
